What all share (format): cell-based, human
Data set [1] concerns H929 BCMA-expressing myeloma cell line co-cultured with T-cells. As to the kind of experiment: CC-93269-induced cytokine secretion, T-cell co-culture with H929. The note with it: 1 μM DEX vs DMSO control, highest concentration of CC-93269, 72 hours, 3 donors.
The next data set concerns BCMA+ tumour cell lines. As to the kind of experiment: CC-93269-induced redirected lysis of BCMA+ tumour cell lines (overall). The note with it: co-treatment with CC-93269. As to the method: The cocultures were incubated at 37° C. with 5% CO2. After 72 hours of incubation, culture supernatants were harvested and stored at −80° C. The cells were labeled with Live/Dead Fixable Aqua Dead Cell Stain, according to the manufacturer's instructions for 30 minutes at RT. Subsequently, cells were stained with antibodies against the following cell surface markers: CD2, CD3, CD4, CD8, CD69, CD25, HLA-DR, and CD154 in a final volume of 50 μL of flow staining buffer. After staining for cell surface molecules, the cells were washed once with 150 μL flow staining buffer, resuspended in 50 μL of BD Cytofix fixation buffer, and incubated for 30 minutes at RT. Cells were washed with 150 μL of flow staining buffer and resuspended in a final volume of 50 μL of flow staining buffer for analysis on an IQUE Screener plus instrument (Intellicyt, Albuquerque, N. Mex.). […] The IC50 values were calculated using non-linear regression analysis, sigmoidal dose-response using GraphPad Prism (version 5.0) software.

In data set [2] the test system is KMS12-PE BCMA-expressing myeloma cell line co-cultured with T-cells. As to the kind of experiment: CC-93269-induced cytokine secretion, T-cell co-culture with KMS12-PE. The note with it: 1 μM DEX vs DMSO control, highest concentration of CC-93269, 72 hours, 3 donors.
Data set [3] concerns BCMA-expressing tumour cell lines co-cultured with T-cells. The data set can be described thus: CC-93269-mediated cytokine release across the four co-cultures. The note with it: 1 μM DEX vs DMSO control, highest concentration of CC-93269.
Data set [4] concerns SKMM2 BCMA-expressing myeloma cell line co-cultured with T-cells. The data set can be described thus: CC-93269-induced cytokine secretion, T-cell co-culture with SKMM2. The note with it: 1 μM DEX vs DMSO control, highest concentration of CC-93269, 72 hours, 3 donors.
Data set [5] deals with MM1S BCMA-expressing myeloma cell line co-cultured with T-cells. As to the kind of experiment: CC-93269-induced cytokine secretion, T-cell co-culture with MM1S. The note with it: 1 μM DEX vs DMSO control, highest concentration of CC-93269, 72 hours, 3 donors.

Experimental findings from US20230057602A1, “METHODS OF TREATMENT WITH ANTIBODIES AGAINST BCMA AND CD3” (BRISTOL-MYERS SQUIBB COMPANY, priority 2019, published 2023) are described below.

Structures are written as SMILES.

With `C[C@@H]1C[C@H]2[C@@H]3CCC4=CC(=O)C=C[C@]4(C)[C@@]3(F)[C@@H](O)C[C@]2(C)[C@@]1(O)C(=O)CO` [Dexamethasone, dexamethasone], the “% Reduction of CC-93269-induced IL-2 secretion, Mean” value in data set [1] was found to be 74.1%; in data set [2], 48.3%; in data set [4] it was 56.5%; in data set [5], 57.6%. The “% Reduction of CC-93269-induced TNF-α secretion, Mean” value in data set [1] was found to be 61.8%; in data set [2] it was 53.9%; in data set [4] it was 46.3%; in data set [5] it was 50.3%. Moreover, the “effect of dexamethasone on CC-93269-induced redirected lysis / cytotoxic activity” value in the data set with BCMA+ tumour cell lines is given as “minimally affected”; in the data set with BCMA+ tumour cell lines (listed as dexamethasone), “minimal suppressive impact”. For the same compound, the “lowering of CC-93269-mediated release of IL-2” value in data set [3] is 48.3-74.1%. For the same compound, in data set [3], the “lowering of CC-93269-mediated release of TNF-α” value was 46.3-61.8%.
